Data as given in PubChem BioAssay AID256 (DTP/NCI, 2004).
“And” between values parts separate entries of the source, which are not always exact repeats. Equal entries are not always repeated. Toxic doses and inconclusive results are not listed.

System: CD2F1 mice, L1210 leukemia ip, survival T/C
Assay: NCI In Vivo Anticancer Drug Screen. Data for tumor model L1210 Leukemia (intraperitoneal) in CD2F1 (CDF1) mice
Conditions: higher = longer survival
How it was run: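 Ratio T/C, where T is the treated-group value and C the vehicle-dosed control value, from mice implanted with a transplantable tumor.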

[1] = endpoint: mean survival time, dose: 100.0 mg/kg/injection, schedule: Q04DX003 (ip), vehicle: saline with Tween-80
[2] = endpoint: mean survival time, dose: 200.0 mg/kg/injection, schedule: Q04DX003 (ip), vehicle: saline with Tween-80
[3] = endpoint: mean survival time, dose: 400.0 mg/kg/injection, schedule: Q04DX003 (ip), vehicle: saline with Tween-80
[4] = endpoint: mean survival time, dose: 12.5 mg/kg/injection, schedule: Q01DX009 (ip), vehicle: saline with Tween-80
[5] = endpoint: mean survival time, dose: 25.0 mg/kg/injection, schedule: Q01DX009 (ip), vehicle: saline with Tween-80
[6] = endpoint: mean survival time, dose: 50.0 mg/kg/injection, schedule: Q01DX009 (ip), vehicle: saline with Tween-80
[7] = endpoint: mean survival time, dose: 50.0 mg/kg/injection, schedule: Q04DX003 (ip), vehicle: saline with Tween-80
[8] = endpoint: mean survival time, dose: 50.0 mg/kg/injection, schedule: Q04DX003 (ip), vehicle: saline
[9] = endpoint: mean survival time, dose: 100.0 mg/kg/injection, schedule: Q04DX002 (ip), vehicle: saline with Tween-80
[10] = endpoint: mean survival time, dose: 200.0 mg/kg/injection, schedule: Q04DX002 (ip), vehicle: saline with Tween-80
[11] = endpoint: mean survival time, dose: 200.0 mg/kg/injection, schedule: Q01DX009 (ip), vehicle: saline with Tween-80
[12] = endpoint: mean survival time, dose: 400.0 mg/kg/injection, schedule: Q01DX009 (ip), vehicle: saline with Tween-80

SMILES: Cc1ccc(S(=O)(=O)OC2C(O)OCC3OC(C)(C)OC32)cc1 (stereo unspecified)
- T/C [1]: 98 % of control
- T/C [2]: 102 % of control
- T/C [3]: 93 % of control

SMILES: Cc1cc(C)c(C#[N+][O-])c(C)c1
- T/C [4]: 97 % of control
- T/C [5]: 94 % of control
- T/C [6]: 91 % of control

SMILES: CC(=O)CC(C)=O.CC(=O)CC(C)=O.O.O.[Co]
- T/C (endpoint: mean survival time, dose: 22.0 mg/kg/injection, schedule: Q04DX003 (ip), vehicle: saline with Tween-80): 111 % of control
- T/C (endpoint: mean survival time, dose: 22.0 mg/kg/injection, schedule: Q04DX003 (ip), vehicle: saline): 97 % of control
- T/C (endpoint: mean survival time, dose: 33.0 mg/kg/injection, schedule: Q04DX003 (ip), vehicle: saline with Tween-80): 114 % of control
- T/C (endpoint: mean survival time, dose: 33.0 mg/kg/injection, schedule: Q04DX003 (ip), vehicle: saline): 102 % of control
- T/C [7]: 109 % of control
- T/C [8]: 108 % of control

SMILES: CSc1ccc(OC(=O)Nc2ccc(C)c([N+](=O)[O-])c2)cc1C
- T/C [1]: 92 % of control
- T/C [2]: 92 % of control
- T/C [3]: 96 % of control

SMILES: CCC[CH2][Sn]1([CH2]CCC)[O]C2C(CO)OC(n3c(Br)c(C(N)=O)c4c(N)ncnc43)C2[O]1 (stereo unspecified)
- T/C (endpoint: mean survival time, dose: 1.56 mg/kg/injection, schedule: Q01DX009 (ip), vehicle: distilled water + Tween-80): 100 % of control
- T/C (endpoint: mean survival time, dose: 3.13 mg/kg/injection, schedule: Q01DX009 (ip), vehicle: distilled water + Tween-80): 107 % of control

SMILES: CC1(C)CCCC2(C)C(OCCO)=CC(=O)C=C12 (stereo unspecified)
- T/C (endpoint: mean survival time, dose: 100.0 mg/kg/injection, schedule: Q04DX003 (ip), vehicle: saline sonified): 96 % of control
- T/C (endpoint: mean survival time, dose: 200.0 mg/kg/injection, schedule: Q04DX003 (ip), vehicle: saline sonified): 98 % of control
- T/C (endpoint: mean survival time, dose: 400.0 mg/kg/injection, schedule: Q04DX003 (ip), vehicle: saline sonified): 96 % of control

SMILES: O=C(/C(=N\Nc1ccc([N+](=O)[O-])cc1)c1ccccc1)c1ccccc1
- T/C [4]: 96 % of control
- T/C [5]: 88 % of control
- T/C [6]: 88 % of control
- T/C [1]: 97 % of control
- T/C [2]: 97 % of control
- T/C [3]: 101 % of control

SMILES: CC(C)(C)CC(C)(C)c1ccc(OCCOC(=O)c2ccccc2C(=O)O)cc1
- T/C (endpoint: mean survival time, dose: 100.0 mg/kg/injection, schedule: Q01DX001 (ip), vehicle: Klucel (hydroxypropylcellulose) (HPC)): 90 % of control

SMILES: CC(=O)Nc1nc2ncc(/C=C/c3ccccc3)nc2c(=O)[nH]1
- T/C (endpoint: mean survival time, dose: 75.0 mg/kg/injection, schedule: Q01DX001 (ip), vehicle: other): 100 % of control
- T/C (endpoint: mean survival time, dose: 150.0 mg/kg/injection, schedule: Q01DX001 (ip), vehicle: other): 97 % of control

SMILES: O=C(O)CCN1CCCc2ccccc21
- T/C (endpoint: mean survival time, dose: 100.0 mg/kg/injection, schedule: Q01DX009 (ip), vehicle: other): 109 % of control
- T/C (endpoint: mean survival time, dose: 100.0 mg/kg/injection, schedule: Q04DX003 (ip), vehicle: other): 95 % of control
- T/C (endpoint: mean survival time, dose: 200.0 mg/kg/injection, schedule: Q01DX009 (ip), vehicle: other): 103 % of control
- T/C (endpoint: mean survival time, dose: 200.0 mg/kg/injection, schedule: Q04DX003 (ip), vehicle: other): 107 % of control
- T/C (endpoint: mean survival time, dose: 400.0 mg/kg/injection, schedule: Q04DX003 (ip), vehicle: other): 96 % of control

SMILES: CCCCCCCCCCCCOCCOCCOCCOCCO
- T/C [9]: 98 % of control
- T/C [10]: 102 % of control

SMILES: Cn1nc(CC#N)c2c(N)ncnc21
- T/C (endpoint: mean survival time, dose: 12.5 mg/kg/injection, schedule: Q01DX005 (ip), vehicle: water): 96 % of control
- T/C (endpoint: mean survival time, dose: 25.0 mg/kg/injection, schedule: Q01DX005 (ip), vehicle: water): 93 % of control
- T/C (endpoint: mean survival time, dose: 50.0 mg/kg/injection, schedule: Q01DX005 (ip), vehicle: water): 92 % of control
- T/C (endpoint: mean survival time, dose: 100.0 mg/kg/injection, schedule: Q01DX005 (ip), vehicle: water): 88 % of control
- T/C (endpoint: mean survival time, dose: 200.0 mg/kg/injection, schedule: Q01DX005 (ip), vehicle: water): 91 % of control

SMILES: Cc1ccc(NCCNCC(C)(C)O)c2c(=O)c3ccccc3sc12
- T/C (endpoint: mean survival time, dose: 12.5 mg/kg/injection, schedule: Q04DX003 (ip), vehicle: saline): 100 % of control
- T/C (endpoint: mean survival time, dose: 25.0 mg/kg/injection, schedule: Q04DX003 (ip), vehicle: saline): 103 % of control
- T/C (endpoint: mean survival time, dose: 50.0 mg/kg/injection, schedule: Q01DX001 (ip), vehicle: saline): 93 % of control
- T/C [8]: 92 % of control

SMILES: COc1ccc(C(=O)C(=O)c2ccccc2Cl)cc1
- T/C [9]: 98 % of control
- T/C [10]: 102 % of control
- T/C (endpoint: mean survival time, dose: 400.0 mg/kg/injection, schedule: Q04DX002 (ip), vehicle: saline with Tween-80): 95 % of control

SMILES: CNC(=O)OCc1c(COC(=O)NC)c(-c2ccc(Cl)c(Cl)c2)n2c1CCC2
- T/C (endpoint: mean survival time, dose: 12.5 mg/kg/injection, schedule: Q01DX009 (ip), vehicle: Klucel (hydroxypropylcellulose) (HPC)): 109 % of control
- T/C (endpoint: mean survival time, dose: 25.0 mg/kg/injection, schedule: Q01DX009 (ip), vehicle: Klucel (hydroxypropylcellulose) (HPC)): 110 % of control
- T/C (endpoint: mean survival time, dose: 50.0 mg/kg/injection, schedule: Q01DX009 (ip), vehicle: Klucel (hydroxypropylcellulose) (HPC)): 107 % of control
- T/C (endpoint: mean survival time, dose: 100.0 mg/kg/injection, schedule: Q01DX009 (ip), vehicle: Klucel (hydroxypropylcellulose) (HPC)): 105 % of control

SMILES: C[N+](C)(CC(=O)Nc1cccc(C(F)(F)F)c1)CC(=O)Nc1cccc(C(F)(F)F)c1
- T/C (endpoint: mean survival time, dose: 25.0 mg/kg/injection, schedule: Q04DX003 (ip), vehicle: saline with Tween-80): 100 % of control
- T/C [7]: 88 % of control

SMILES: CC(CCc1ccccc1)NC1=NCCO1 (stereo unspecified)
- T/C (endpoint: mean survival time, dose: 100.0 mg/kg/injection, schedule: Q01DX009 (ip), vehicle: saline with Tween-80): 102 % of control
- T/C [1]: 98 % of control
- T/C [11]: 95 % of control
- T/C [2]: 103 % of control
- T/C [12]: 98 % of control
- T/C [3]: 95 % of control

SMILES: NC1CCCCC1N.O=S(=O)([O-])CCCN1CCN(CCO)CC1.O=S(=O)([O-])CCCN1CCN(CCO)CC1.[Pt+4]
- T/C (endpoint: median survival time, dose: 0.78 mg/kg/injection, schedule: Q04DX003 (ip), vehicle: saline): 121 % of control
- T/C (endpoint: median survival time, dose: 1.56 mg/kg/injection, schedule: Q04DX003 (ip), vehicle: saline): 120 % of control
- T/C (endpoint: median survival time, dose: 6.25 mg/kg/injection, schedule: Q04DX003 (ip), vehicle: saline): 168 % of control and 175 % of control
- T/C (endpoint: median survival time, dose: 12.5 mg/kg/injection, schedule: Q04DX003 (ip), vehicle: saline): 212 % of control and 487 % of control
- T/C (endpoint: median survival time, dose: 25.0 mg/kg/injection, schedule: Q04DX003 (ip), vehicle: saline): 256 % of control and 487 % of control
- T/C (endpoint: median survival time, dose: 50.0 mg/kg/injection, schedule: Q04DX003 (ip), vehicle: saline): 151 % of control and 170 % of control

SMILES: COC(=O)C1OC(Sc2ncnc3nc[nH]c23)C(O)C(O)C1O (stereo unspecified)
- T/C (endpoint: median survival time, dose: 25.0 mg/kg/injection, schedule: Q01DX005 (ip), vehicle: water): 98 % of control
- T/C (endpoint: median survival time, dose: 50.0 mg/kg/injection, schedule: Q01DX005 (ip), vehicle: water): 109 % of control
- T/C (endpoint: median survival time, dose: 100.0 mg/kg/injection, schedule: Q01DX005 (ip), vehicle: water): 109 % of control
- T/C (endpoint: median survival time, dose: 200.0 mg/kg/injection, schedule: Q01DX005 (ip), vehicle: water): 113 % of control and 118 % of control
- T/C (endpoint: median survival time, dose: 400.0 mg/kg/injection, schedule: Q01DX005 (ip), vehicle: water): 119 % of control

SMILES: COc1nc(OC)c2ccn(C3CC(O)C(CO)O3)c2n1 (stereo unspecified)
- T/C (endpoint: median survival time, dose: 12.5 mg/kg/injection, schedule: Q01DX005 (ip), vehicle: saline): 106 % of control
- T/C (endpoint: median survival time, dose: 25.0 mg/kg/injection, schedule: Q01DX005 (ip), vehicle: saline): 103 % of control
- T/C (endpoint: median survival time, dose: 50.0 mg/kg/injection, schedule: Q01DX005 (ip), vehicle: saline): 102 % of control
- T/C (endpoint: median survival time, dose: 100.0 mg/kg/injection, schedule: Q01DX005 (ip), vehicle: saline): 93 % of control
- T/C (endpoint: median survival time, dose: 200.0 mg/kg/injection, schedule: Q01DX005 (ip), vehicle: saline): 98 % of control

SMILES: C[N+](C)(C)C.N=C=O.N=C=O.N=C=O.N=C=O.[Co+2]
- T/C (endpoint: mean survival time, dose: 10.0 mg/kg/injection, schedule: Q01DX009 (ip), vehicle: saline): 98 % of control

SMILES: O=C1N(CCO)CCN1/N=C/c1ccc([N+](=O)[O-])o1
- T/C [1]: 93 % of control
- T/C [2]: 102 % of control
- T/C [3]: 95 % of control

SMILES: O=c1c(O)c(-c2ccc(O)c(O)c2)oc2cc(O)cc(O)c12
- T/C (endpoint: mean survival time, dose: 100.0 mg/kg/injection, schedule: Q01DX001 (ip), vehicle: saline): 100 % of control
- T/C (endpoint: mean survival time, dose: 200.0 mg/kg/injection, schedule: Q01DX001 (ip), vehicle: saline): 100 % of control
- T/C [11]: 90 % of control
- T/C (endpoint: mean survival time, dose: 400.0 mg/kg/injection, schedule: Q01DX001 (ip), vehicle: saline): 100 % of control
- T/C [12]: 96 % of control
- T/C (endpoint: mean survival time, dose: 800.0 mg/kg/injection, schedule: Q01DX009 (ip), vehicle: saline with Tween-80): 87 % of control
